Experiment: xn = mol fraction of the nth substance listed
Conditions: Liquid, Vibrating tube method, x2 = 0.667

C[N+](C)(C)CCO.[Cl-] [choline chloride] + OCC(O)CO
mass density [kg/m3]
Conditions | 298.15 K | 303.15 K | 308.15 K | 313.15 K | 318.15 K | 323.15 K
100 kPa | 1192.1 | 1189.2 | 1186.2 | 1183.4 | 1180.5 | 1177.7
5000 kPa | 1193.6 | 1190.7 | 1187.7 | 1184.9 | 1182 | 1179.2
10000 kPa | 1195 | 1192.1 | 1189.2 | 1186.3 | 1183.5 | 1180.6
15000 kPa | 1196.3 | 1193.5 | 1190.6 | 1187.7 | 1184.9 | 1182.1
20000 kPa | 1197.7 | 1194.8 | 1192 | 1189.1 | 1186.3 | 1183.5
25000 kPa | 1199.1 | 1196.2 | 1193.3 | 1190.5 | 1187.7 | 1184.9
30000 kPa | 1200.4 | 1197.6 | 1194.7 | 1191.9 | 1189.1 | 1186.3
35000 kPa | 1201.7 | 1198.9 | 1196 | 1193.3 | 1190.4 | 1187.7
40000 kPa | 1203 | 1200.2 | 1197.4 | 1194.6 | 1191.8 | 1189.1
45000 kPa | 1204.3 | 1201.5 | 1198.7 | 1195.9 | 1193.1 | 1190.4
50000 kPa | 1205.6 | 1202.8 | 1200 | 1197.2 | 1194.4 | 1191.7

From the NIST ThermoML archive (doi:10.1016/j.fluid.2012.08.016)
